Results as given in patent US5171751A, “Benzofuran/benzofuranalkyl-N-terminal amino hydroxy” (G. D. Searle & Co., priority 1991, dated 1992).
Square brackets hold non-standard residues; d marks the D form. Peptide text beside a SMILES is read from it. * marks the point of attachment. Sta = CC(C)C[C@H](N)[C@@H](O)CC(=O)O; Isovaleryl = CC(C)CC(=O)*

Tests used:
human renin = molecular target: T1, human renin (Homo sapiens, UniProt P00797); experiment: In vitro human renin inhibition (angiotensin I determined by radioimmunoassay); assay type: biochemical; settings: 37° C., pH 7.4, two hours
T1 construct: purchased National Institute for Biological Standards, London
T1 sequence (P00797 67-406): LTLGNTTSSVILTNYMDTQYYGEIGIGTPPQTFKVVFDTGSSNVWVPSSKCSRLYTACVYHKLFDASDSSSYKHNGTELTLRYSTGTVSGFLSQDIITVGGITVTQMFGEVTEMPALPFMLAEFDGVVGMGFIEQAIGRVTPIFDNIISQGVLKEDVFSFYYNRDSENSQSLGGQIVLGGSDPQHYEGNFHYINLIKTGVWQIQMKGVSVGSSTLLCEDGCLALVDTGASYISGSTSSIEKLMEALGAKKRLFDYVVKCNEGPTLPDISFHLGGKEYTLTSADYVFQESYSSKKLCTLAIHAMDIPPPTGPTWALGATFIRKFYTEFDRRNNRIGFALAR
Method: Compounds of Formula I were evaluated as inhibitors of human renin in an in vitro assay. This human renin inhibition test has been previously described in detail Papaioannou et al., Clinical and Experimental Hypertension, A7(9), 1243-1257 (1985)]. Human renin was obtained from the National Institute for Biological Standards, London. An incubation mixture was prepared containing in a total volume of 0.25 mL 100 mM Tris-acetate buffer at pH 7.4, 25×10^-6 Goldblatt units of renin, 0.05mL of plasma from human volunteers taking oral contraceptives, 6.0 mM sodium EDTA, 2.4 mM phenylmethyl sulfonyl fluoride, 1.5 mM 8-hydroxyquinoline, 0.4 mg/mL BSA, and 0.024 mg/mL neomycin sulfate. This mixture was incubated for two hours at 37° C. in the presence or absence of renin inhibitors. The produced angiotensin I was determined by radioimmunoassay (New England Nuclear kit). Test compounds to be assayed were dissolved in DMSO and diluted with 100mM Tris-acetate buffer at pH 7.4 containing 0.5% BSA to the appropriate concentration. The final concentration of organic solvent in the reaction mixture was less than 1%. Control incubations at 37° C. were used to correct for effects of organic solvent on renin activity.

pepsin = settings: cited from earlier work
cathepsin D = settings: cited from earlier work
renin = settings: cited from earlier work
hog renin = settings: after injection of hog renin into nephrectomized rats; cited from earlier work
acid proteases = settings: cited from earlier work

Row | Compound | IC50 (human renin) | inhibitor of pepsin (pepsin) | inhibitor of cathepsin D (cathepsin D) | inhibitor of renin (renin) | reduction of blood pressure in vivo (hog renin) | inhibiting acid proteases in addition to renin (acid proteases)
1 | CC(C)C[C@H](O)[C@H](O)[C@H](CC1CCCCC1)NC(=O)[C@H](C)CNC(=O)CCc1c[nH]c2ccccc12 [Example 22, N-[3-[[1S, 1R^* -(cyclohexylmethyl)-2S^*, 3R^* -dihydroxy-5-methylhexyl]amino]-2S^* -methyl-3-oxopropyl]-1H-indole-3-propanamide] | 0.43 µM |  |  |  |  | 
2 | CC(C)CC(=O)N[C@H](C(=O)N[C@H](C(=O)N[C@@H](CC(C)C)[C@@H](O)CC(=O)N[C@@H](C)C(=O)N[C@@H](CC(C)C)[C@@H](O)CC(=O)O)C(C)C)C(C)C [pepstatin] (Isovaleryl-VV[Sta]A[Sta]-OH) |  | inhibitor | inhibitor | inhibitor | reduce blood pressure in vivo | inhibiting acid proteases in addition to renin
